Assay results from PMC9108871 (Frontiers in Plant Science, 2022).

Assays:
[1] = system: ALDH (aldehyde dehydrogenase; ALDH2); experiment: ALDH activity kit (Abcam), absorbance […] nm (NADH standard), Lineweaver-Burk; assay type: biochemical, Citrus sinensis; details: no Effector 3; incubation 1 h; varied substrate acetaldehyde (Methods)
[2] = system: GH17 (Glycosyl Hydrolase family 17); experiment: beta-glucosidase kit (MAK129), absorbance […] nm, Lineweaver-Burk; assay type: biochemical, Citrus sinensis; details: K-phosphate 100 mM, pH 6.5, 37°C, 20 min; no LasP235; substrate taken from Methods

Compound	Km [1]	Km [2]
CC=O [acetaldehyde]	2130 µM	–
O=[N+]([O-])c1ccc(O[C@@H]2O[C@H](CO)[C@@H](O)[C@H](O)[C@H]2O)cc1 [p-nitrophenyl-β-D-glucopyranoside]	–	42 µM
